In PMC6968633, “Synthesis, antibacterial and anticancer activity, and docking study of aminoguanidines containing an alkynyl moiety” (Journal of Enzyme Inhibition and Medicinal Chemistry, 2019):
Converted amounts (≈) assume the structure as drawn.

Assays:
[1] = tested on: Staphylococcus aureus ATCC 43300; experiment: Antibacterial MIC, multidrug-resistant clinical isolate; type: cell-based; conditions: Staphylococcus aureus, ATCC43300; multidrug-resistant S. aureus ATCC 43300; read-out: MIC
Protocol: (§1) Test bacteria were grown to mid-log phase in Mueller–Hinton broth (MHB) or Tryptone Soya Broth (TSB) and diluted 1000-fold in the same medium. Bacteria (10^5 CFU/mL) were inoculated into MHB or TSB and dispensed at 0.2 ml/well into a 96-well microtiter plate. As positive controls, gatifloxacin, moxifloxacin, norfloxacin, oxacillin, and penicillin were used. […] Bacterial growth was determined by measuring the absorption at 630 nm using a microplate reader. All experiments were carried out three times.
(§2) The evaluation of antibacterial activity of all compounds (3a–3j and 6a–6k) was performed by a serial dilution method to determine the MIC against a panel of pathogens comprising five Gram-positive strains (S. aureus (CMCC(B) 26003 and CMCC 25923), Streptococcus mutans BNCC 336931, Enterococcus faecalis CMCC 29212, and Bacillus subtilis CMCC 63501), four Gram-negative strains (E. coli (CMCC 25922 and CMCC 44568) and P. aeruginosa (CMCC 27853 and CMCC 10104)), as well as three methicillin-resistant clinical isolates (S. aureus ATCC 43300 and ATCC 33591, P. aeruginosa ATCC BAA-2111). The results are described in Tables 1 and 2. Gatifloxacin, moxifloxacin, norfloxacin, oxacillin, and penicillin were used as positive controls.

[2] = tested on: Staphylococcus aureus ATCC 33591; experiment: as above; type: cell-based; conditions: Staphylococcus aureus, ATCC33591; multidrug-resistant S. aureus ATCC 33591; read-out: MIC
Protocol: as §1, §2

[3] = tested on: SGC7901; experiment: Cytotoxicity, CCK-8 assay; type: cell-based; conditions: Homo sapiens, SGC-7901, SGC7901 gastric cancer cells, 48 h
Protocol: (§3) A lung cancer cell line (A549), gastric cancer cell line (SGC7901) and human hepatocytes (L02) were used to test the anticancer activity and cytotoxicity of the new compounds. 5-Fluorouracil (5-FU) was used as the positive control against cancer cell lines. The A549, SGC7901 and L02 cells were grown in Dulbecco’s modified Eagle’s medium (DMEM) supplemented with 10% foetal bovine serum (FBS) and antibiotics (100 U/mL penicillin-streptomycin). Cells at 80–90% confluence were split by trypsin (0.25% in PBS; pH 7.4), and the medium was changed at 24 h intervals. The cells were cultured at 37 °C in a 5% CO2 incubator. The cells were passaged three times, then approximately 1 × 10^4 cells were seeded into each well of a 96-well plate and allowed to incubate to allow attachment of the cells to the surface. After 24 h, the medium was replaced with DMEM supplemented with 10% FBS containing various concentrations (0.1, 0.3, 1, 3, 10, and 30 μg/mL) of test compounds. Each concentration was tested in triplicate. After 48 h treatment, 20 µL of CCK-8 solution was added to each well and the optical density measured at 450 nm after 3 h using a microplate reader. The IC50 values were defined as the concentrations inhibiting 50% of cell growth.

[4] = tested on: A549; experiment: Cytotoxicity, CCK-8 assay; type: cell-based; conditions: Homo sapiens, A549 lung cancer cells, 48 h
Protocol: as §3

[5] = tested on: Staphyiococcus aureus CMCC 25923; experiment: Antibacterial MIC, serial dilution; type: cell-based, Staphylococcus aureus; conditions: Staphylococcus aureus, CMCC25923; S. aureus CMCC 25923, 24 h, 37 °C; read-out: MIC
Protocol: as §1, §2

[6] = tested on: L02; experiment: Cytotoxicity, CCK-8 assay, normal cell line; type: cell-based; conditions: L02 normal human hepatocytes, 48 h
Protocol: as §3

[7] = tested on: Escherichia coli CMCC 44568; experiment: Antibacterial MIC, serial dilution; type: cell-based; conditions: Escherichia coli, CMCC44568; E. coli CMCC 44568, 24 h, 37 °C; read-out: MIC
Protocol: as §1, §2

[8] = tested on: Pseudomonas aeruginosa CMCC 27853; experiment: Antibacterial MIC, serial dilution; type: cell-based; conditions: Pseudomonas aeruginosa, CMCC27853; P. aeruginosa CMCC 27853, 24 h, 37 °C; read-out: MIC
Protocol: as §1, §2

[9] = tested on: Streptococcus mutans BNCC 336931; experiment: Antibacterial MIC, serial dilution; type: cell-based; conditions: Streptococcus mutans, BNCC336931; S. mutans BNCC 336931, 24 h, 37 °C; read-out: MIC
Protocol: as §1, §2

[10] = tested on: Staphylococcus aureus CMCC(B)26003; experiment: Antibacterial MIC, serial dilution; type: cell-based; conditions: Staphylococcus aureus; S. aureus CMCC(B)26003, 24 h, 37 °C; read-out: MIC
Protocol: as §1, §2

[11] = tested on: Bacillus subtilis CMCC 63501; experiment: Antibacterial MIC, serial dilution; type: cell-based; conditions: Bacillus subtilis, CMCC63501; B. subtilis CMCC 63501, 24 h, 37 °C; read-out: MIC
Protocol: as §1, §2

[12] = tested on: Enterococcus faecalis CMCC 29212; experiment: Antibacterial MIC, serial dilution; type: cell-based; conditions: Enterococcus faecalis, CMCC29212; E. faecalis CMCC 29212, 24 h, 37 °C; read-out: MIC
Protocol: as §1, §2

[13] = tested on: Escherichia coli CMCC 25922; experiment: Antibacterial MIC, serial dilution; type: cell-based; conditions: Escherichia coli, CMCC25922; E. coli CMCC 25922, 24 h, 37 °C; read-out: MIC
Protocol: as §1, §2

[14] = tested on: Pseudomonas aeruginosa CMCC 10104; experiment: Antibacterial MIC, serial dilution; type: cell-based; conditions: Pseudomonas aeruginosa, CMCC10104; P. aeruginosa CMCC 10104, 24 h, 37 °C; read-out: MIC
Protocol: as §1, §2

[15] = tested on: tested bacterial strains; experiment: Antibacterial MIC, panel of tested bacterial strains; type: cell-based; conditions: against almost all of the tested strains
Protocol: as §1, §2

[16] = tested on: Pseudomonas aeruginosa ATCC BAA-2111; experiment: Antibacterial MIC, multidrug-resistant clinical isolate; type: cell-based; conditions: ATCCBAA2111, multidrug-resistant P. aeruginosa ATCC BAA-2111
Protocol: as §1, §2

Q: With `N=C(N)NN=Cc1ccc(C#CC#Cc2ccccc2Cl)cc1` [Compound 6e, 2-(4-((2-Chlorophenyl)buta-1,3-diyn-1-yl)benzylidene)hydrazine-1-carboximidamide] as the compound, how does the MIC [1] read?
A: 8 µg/mL (≈ 24.9 µM)

Q: And the MIC [2]?
A: 0.5 µg/mL (≈ 1.56 µM)

Q: And the melting point?
A: 207 to 210 °C

Q: What about the IC50 [3] of the same compound?
A: 1.48 µg/mL (≈ 4.61 µM)

Q: What about the IC50 [4] of the same compound?
A: 3.62 µg/mL (≈ 11.3 µM)

Q: What about the MIC [5] of the same compound?
A: 128 µg/mL (≈ 399 µM)

Q: What about the IC50 [6] of the same compound?
A: 14.8 µg/mL (≈ 46.1 µM)

Q: And the MIC [7]?
A: 64 µg/mL (≈ 200 µM)

Q: And the MIC [8]?
A: > 128 µg/mL

Q: What about the MIC [9] of the same compound?
A: 1 µg/mL (≈ 3.12 µM)

Q: And the MIC [10]?
A: 0.25 µg/mL (≈ 0.779 µM)

Q: And the MIC [11]?
A: 4 µg/mL (≈ 12.5 µM)

Q: And the MIC [12]?
A: 0.5 µg/mL (≈ 1.56 µM)

Q: What about the MIC [13] of the same compound?
A: 8 µg/mL (≈ 24.9 µM)

Q: And the MIC [14]?
A: 4 µg/mL (≈ 12.5 µM)

Q: For `N=C(N)NN=Cc1ccc(C#CC#Cc2cccc(Br)c2)cc1` [Compound 6i, 2-(4-((3-Bromophenyl)buta-1,3-diyn-1-yl)benzylidene)hydrazine-1-carboximidamide], which melting point is on record?
A: 196 to 198 °C

Q: And the MIC [5]?
A: 128 µg/mL (≈ 350 µM)

Q: What about the MIC [15] of the same compound?
A: ≥ 128 µg/mL

Q: What about the MIC [7] of the same compound?
A: 128 µg/mL (≈ 350 µM)

Q: What about the MIC [8] of the same compound?
A: > 128 µg/mL

Q: And the MIC [9]?
A: 0.5 µg/mL (≈ 1.37 µM)

Q: What about the MIC [10] of the same compound?
A: 2 µg/mL (≈ 5.48 µM)

Q: And the MIC [11]?
A: 2 µg/mL (≈ 5.48 µM)

Q: And the MIC [12]?
A: 0.5 µg/mL (≈ 1.37 µM)

Q: What about the MIC [13] of the same compound?
A: 64 µg/mL (≈ 175 µM)

Q: And the MIC [14]?
A: 128 µg/mL (≈ 350 µM)

Q: With `N=C(N)NN=Cc1ccc(C#CC#Cc2ccccc2F)cc1` [Compound 6b, 2-(4-((2-Fluorophenyl)buta-1,3-diyn-1-yl)benzylidene)hydrazine-1-carboximidamide] as the compound, how does the MIC [1] read?
A: 8 µg/mL (≈ 26.3 µM)

Q: What about the MIC [2] of the same compound?
A: 1 µg/mL (≈ 3.29 µM)

Q: What about the melting point of the same compound?
A: 218 to 220 °C

Q: What about the IC50 [3] of the same compound?
A: 1.37 µg/mL (≈ 4.5 µM)

Q: And the IC50 [4]?
A: 2.22 µg/mL (≈ 7.29 µM)

Q: And the MIC [5]?
A: 1 µg/mL (≈ 3.29 µM)

Q: What about the IC50 [6] of the same compound?
A: 18 µg/mL (≈ 59.1 µM)

Q: What about the MIC [7] of the same compound?
A: 128 µg/mL (≈ 421 µM)

Q: What about the MIC [8] of the same compound?
A: > 128 µg/mL

Q: What about the MIC [9] of the same compound?
A: 0.5 µg/mL (≈ 1.64 µM)

Q: And the MIC [10]?
A: 0.25 µg/mL (≈ 0.821 µM)

Q: And the MIC [11]?
A: 4 µg/mL (≈ 13.1 µM)

Q: And the MIC [12]?
A: 0.5 µg/mL (≈ 1.64 µM)

Q: And the MIC [13]?
A: 8 µg/mL (≈ 26.3 µM)

Q: And the MIC [14]?
A: 128 µg/mL (≈ 421 µM)

Q: What does the source list for `N=C(N)NN=Cc1ccc(C#CC#Cc2ccc(F)cc2)cc1` [Compound 6d, 2-(4-((4-Fluorophenyl)buta-1,3-diyn-1-yl)benzylidene)hydrazine-1-carboximidamide]?
A: melting point: 206 to 210 °C; MIC [5]: 4 µg/mL (≈ 13.1 µM); MIC [15]: ≥ 128 µg/mL; MIC [7]: > 128 µg/mL; MIC [8]: > 128 µg/mL; MIC [9]: > 128 µg/mL; MIC [10]: 64 µg/mL (≈ 210 µM); MIC [11]: > 128 µg/mL; MIC [12]: 128 µg/mL (≈ 421 µM); MIC [13]: > 128 µg/mL; MIC [14]: > 128 µg/mL

Q: For `N=C(N)NN=Cc1ccc(C#Cc2cccc(Br)c2)cc1` [Compound 3i, 2-(4-((3-Bromophenyl)ethynyl)benzylidene)hydrazine-1-carboximidamide], which MIC [1] is on record?
A: 2 µg/mL (≈ 5.86 µM)

Q: And the MIC [2]?
A: 0.5 µg/mL (≈ 1.47 µM)

Q: And the melting point?
A: 223 to 225 °C

Q: And the IC50 [3]?
A: 1.26 µg/mL (≈ 3.69 µM)

Q: And the IC50 [4]?
A: 4.03 µg/mL (≈ 11.8 µM)

Q: What about the MIC [5] of the same compound?
A: 2 µg/mL (≈ 5.86 µM)

Q: What about the IC50 [6] of the same compound?
A: 19.6 µg/mL (≈ 57.5 µM)

Q: And the MIC [7]?
A: 2 µg/mL (≈ 5.86 µM)

Q: What about the MIC [8] of the same compound?
A: > 128 µg/mL

Q: What about the MIC [9] of the same compound?
A: 1 µg/mL (≈ 2.93 µM)

Q: What about the MIC [10] of the same compound?
A: 1 µg/mL (≈ 2.93 µM)

Q: What about the MIC [11] of the same compound?
A: 1 µg/mL (≈ 2.93 µM)

Q: And the MIC [12]?
A: 1 µg/mL (≈ 2.93 µM)

Q: And the MIC [13]?
A: 2 µg/mL (≈ 5.86 µM)

Q: And the MIC [14]?
A: 2 µg/mL (≈ 5.86 µM)

Q: Which results are given for `N=C(N)NN=Cc1ccc(C#CC#Cc2ccccc2)cc1` [Compound 6a, 2-(4-(Phenylbuta-1,3-diyn-1-yl)benzylidene)hydrazine-1-carboximidamide]?
A: MIC [1]: 4 µg/mL (≈ 14 µM); MIC [16]: > 64 µg/mL; MIC [2]: 0.5 µg/mL (≈ 1.75 µM); melting point: 209 to 212 °C; IC50 [3]: 1.63 µg/mL (≈ 5.69 µM); IC50 [4]: 2.49 µg/mL (≈ 8.7 µM); MIC [5]: > 128 µg/mL; IC50 [6]: 13.4 µg/mL (≈ 46.7 µM); MIC [7]: 128 µg/mL (≈ 447 µM); MIC [8]: > 128 µg/mL; MIC [9]: 0.5 µg/mL (≈ 1.75 µM); MIC [10]: 0.5 µg/mL (≈ 1.75 µM); MIC [11]: 0.5 µg/mL (≈ 1.75 µM); MIC [12]: 0.5 µg/mL (≈ 1.75 µM); MIC [13]: 128 µg/mL (≈ 447 µM); MIC [14]: 1 µg/mL (≈ 3.49 µM)
